Results from publication PMC3338516 (PLoS ONE, 2012).
Like-named read-outs stand apart in the source and are kept apart here. Ends that are not written are not given here.

What was measured:
[1] = biological target: T1, HLA-A0201 (Homo sapiens, UniProt P04439, D140Y/D185E/D98H/E176V/E277Q/G131W/G231S/I119V/I121R/I166T/I218V/L300P/L318F/N151K/N90K/P208A/P217A/Q86G/Q94H/R138H/R169H/T345S); test: Competition-based cellular peptide binding assay, HLA-A0201; conditions: for IC50: mild-acid-treated B-LCLs, 150 nM fluorescent reference peptide […], overnight 4°C, flow cytometry, mean of two independent experiments, read-out: HLA-A201 IC50
T1 construct: endogenous in cells
Method: To test binding affinity of eluted and predicted peptides to HLA-I, competition-based cellular peptide binding assays were performed as described earlier. […] Cells were buffered with cold IMDM containing 2% FCS immediately thereafter and resuspended at a concentration of 4×10^5 cells/ml in 2% FCS and 1.5 µg/ml human β2m (Sigma-Aldrich). […] The following HLA-I allele-restricted reference peptides were used: […] (for HLA-B0702) and […] (for HLA-B4002), each containing a fluorescent label bound to the cysteine residue. After overnight incubation at 4°C, cells were washed twice in PBS supplemented with 1% BSA and fixed in 0.5% paraformaldehyde. Cells were analyzed with CellQuestPro or FlowJo software (Tree Star, Ashland, OR, USA).

[2] = biological target: T2, HLA-B0702 (Homo sapiens, UniProt P01889); test: Competition-based cellular peptide binding assay, HLA-B0702; conditions: for IC50: mild-acid-treated B-LCLs, 150 nM fluorescent reference peptide […], overnight 4°C, flow cytometry, mean of two independent experiments
T2 construct: endogenous in cells
Method: (§1) To test binding affinity of eluted and predicted peptides to HLA-I, competition-based cellular peptide binding assays were performed as described earlier. In short, B-LCLs were treated with a mild acid (1∶1 mixture of 0.263M C6H8O7*H2O and 0.126M Na2HPO4*2H2O) for 1 min to remove the naturally HLA-I bound peptides. Cells were buffered with cold IMDM containing 2% FCS immediately thereafter and resuspended at a concentration of 4×10^5 cells/ml in 2% FCS and 1.5 µg/ml human β2m (Sigma-Aldrich). Then, 4×10^4 cells/well were incubated with 150 nM of fluorescently labeled reference peptide and a serial dilution of one of the eluted or predicted peptides. The following HLA-I allele-restricted reference peptides were used: […] (for HLA-A0201), […] (for HLA-A0301), […] (for HLA-B0702) and […] (for HLA-B4002), each containing a fluorescent label bound to the cysteine residue. After overnight incubation at 4°C, cells were washed twice in PBS supplemented with 1% BSA and fixed in 0.5% paraformaldehyde. Cells were analyzed with CellQuestPro or FlowJo software (Tree Star, Ashland, OR, USA). IC50 values were defined with GraphPad Prism 4.02 (GraphPad Software Inc., La Jolla, USA) using the following formula: Y = Bmax*X/(IC50+X), in which Bmax is the maximal binding capacity of the positive control peptide, X the concentration of peptide tested and IC50 the concentration of peptide needed to reach half-maximal binding.

[3] = biological target: T3, HLA-A0301 (Homo sapiens, UniProt P04439); test: Competition-based cellular peptide binding assay, HLA-A0301; conditions: Table 2; mild-acid-treated B-LCLs, 150 nM fluorescent reference peptide […], overnight 4°C, flow cytometry; mean of two independent experiments
T3 construct: endogenous in cells
Method: as §1

[4] = biological target: T4, HLA-B4002 (Homo sapiens, UniProt P01889, A65T/A93T/A95T/D138N/D201E/D98Y/E176V/E204Q/E69K/K202T/N87E/Q56L/Q94N/R180L/S48T/Y33H/Y91S); test: Competition-based cellular peptide binding assay, HLA-B4002; conditions: Table 2; mild-acid-treated B-LCLs, 150 nM fluorescent reference peptide […], overnight 4°C, flow cytometry; mean of two independent experiments
Method: as §1

[5] = biological target: T2, HLA-B0702; conditions: Figure 3 legend; positive control peptide; cited from earlier work
Description: (§2) (A0201 peptide), […] (A0301 peptide), SPSVDK ...

[6] = biological target: T4, HLA-B4002; conditions: Figure 3 legend; positive control peptide; cited from earlier work
Description: as §2

[7] = Table 1, concentration for half maximal competition
[8] = Table 1, class by IC50 cut-off values

Row | Sequence | IC50 ([1]; Table 2) [µM] | IC50 ([2]; Table 2) [µM] | IC50 [3] [µM] | IC50 [4] [µM] | IC50 [1, 7] [µM] | IC50 ([2]; Table 1) [µM] | other results
1 | RMATPLLMQAL [RMATPLLMQAL] | 4.49 | 1.85 | 4.28 | 0.48 | – | – | –
2 | RMATPLLMQALPM [Peptide 3] | – | – | 3.35 | 3.43 | 13.7 | 0.36 | –
3 | LLAGQATT [Peptide 2] | – | – | – | – | > 100 | 40.9 | –
4 | ETIDWKVFESW [Peptide 5] | – | – | – | – | > 100 | > 100 | HLA-A201 Affinity [1, 8]: – (no binding, >100 µM); HLA-B0702 Affinity [2, 8]: – (no binding, >100 µM)
5 | LPMGALPQGPM [Peptide 4] | – | – | – | – | > 100 | 0.41 | –
6 | SPSVDKARAEL | – | – | – | – | – | – | IC50 [5]: 0.7 µM
7 | SRGALYTGFSIL [Peptide 1] | – | – | – | – | 10.9 | 1.39 | –
8 | RMATPLLMQA | 8.08 | 7.75 | 2.45 | 2.05 | – | – | –
9 | GEFGGFGSV | – | – | – | – | – | – | IC50 [6]: 0.2 µM
10 | KMRMATPLL | 10.9 | 0.47 | 6.43 | 0.44 | – | – | –
